Measured values taken from patent US11957687B2 (REGENERON PHARMACEUTICALS, INC., priority 2019, dated 2024).
pIC50: −log10 of the molar value.

Molecular target: HSD17B13 (Homo sapiens (Human), UniProt Q7Z5P4)
Experiment: HSD17B13 enzymatic inhibition assay (150 nM or 50 nM HSD17B13)
Assay type: biochemical
Conditions: 50 nM HSD17B13; read-out: Inhibition of 50 nM of HSD17B13 IC50

Chain of HSD17B13 (Q7Z5P4 other isoform, or with tags, fused parts or gaps): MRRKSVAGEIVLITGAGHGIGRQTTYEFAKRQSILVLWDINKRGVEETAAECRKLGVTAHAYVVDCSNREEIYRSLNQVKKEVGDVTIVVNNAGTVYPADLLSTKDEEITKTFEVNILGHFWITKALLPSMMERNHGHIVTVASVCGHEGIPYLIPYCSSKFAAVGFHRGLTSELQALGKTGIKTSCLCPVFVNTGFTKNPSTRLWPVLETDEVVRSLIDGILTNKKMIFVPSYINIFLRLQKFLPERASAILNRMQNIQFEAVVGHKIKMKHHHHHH

SMILES	pIC50
O=C(NC1CCOc2cccnc21)c1ccc(C(F)(F)F)[nH]c1=O (stereo not drawn) [Compound 477, N-(3,4-dihydro-2H-pyrano[3,2-b]pyridin-4-yl)-2-oxo-6-(trifluoromethyl)-1,2-dihydropyridine-3-carboxamide]	< 5.00
O=C(NC(c1ccccc1)c1cccc(CC(F)(F)F)c1)c1ccc(C(F)(F)F)[nH]c1=O (stereo not drawn) [Compound 478, 2-oxo-N-(phenyl(3-(2,2,2-trifluoroethyl)phenyl)methyl)-6-(trifluoromethyl)-1,2-dihydropyridine-3-carboxamide]	5.85
O=C(NC1c2ccccc2Oc2ccc(CC(F)(F)F)cc21)c1ccc(C(F)(F)F)[nH]c1=O (stereo not drawn) [Compound 479, 2-oxo-N-(2-(2,2,2-trifluoroethyl)-9H-xanthen-9-yl)-6-(trifluoromethyl)-1,2-dihydropyridine-3-carboxamide]	6.59
O=C(NC1c2ccccc2Sc2ccc(CC(F)(F)F)cc21)c1ccc(C(F)(F)F)[nH]c1=O (stereo not drawn) [Compound 480, 2-oxo-N-(2-(2,2,2-trifluoroethyl)-9H-thioxanthen-9-yl)-6-(trifluoromethyl)-1,2-dihydropyridine-3-carboxamide]	6.40
O=C(NC1c2ccccc2Oc2ccc(C3CNC3)cc21)c1ccc(C(F)(F)F)[nH]c1=O (stereo not drawn) [Compound 481, N-(2-(azetidin-3-yl)-9H-xanthen-9-yl)-2-oxo-6-(trifluoromethyl)-1,2-dihydropyridine-3-carboxamide]	5.85
CN1CC(c2ccc3c(c2)C(NC(=O)c2ccc(C(F)(F)F)[nH]c2=O)c2ccccc2O3)C1 (stereo not drawn) [Compound 482, N-(2-(1-methylazetidin-3-yl)-9H-xanthen-9-yl)-2-oxo-6-(trifluoromethyl)-1,2-dihydropyridine-3-carboxamide]	5.62
O=C(NC1c2ccccc2Oc2cc(C3CNC3)ccc21)c1ccc(C(F)(F)F)[nH]c1=O (stereo not drawn) [Compound 483, N-(3-(azetidin-3-yl)-9H-xanthen-9-yl)-2-oxo-6-(trifluoromethyl)-1,2-dihydropyridine-3-carboxamide]	5.95
Cc1ccc2c(c1)Oc1cc(C)ccc1C2NC(=O)c1ccc(C(C)(C)C)nc1Cl [Compound 487, 6-(tert-butyl)-2-chloro-N-(3,6-dimethyl-9H-xanthen-9-yl)nicotinamide]	< 5.00
O=C(NC1c2ccccc2Oc2cc(C3COC3)ccc21)c1ccc(C(F)(F)F)[nH]c1=O (stereo not drawn) [Compound 488, N-(3-(oxetan-3-yl)-9H-xanthen-9-yl)-2-oxo-6-(trifluoromethyl)-1,2-dihydropyridine-3-carboxamide]	6.96
O=C(NC1c2ccccc2Oc2ccc(C3COC3)cc21)c1ccc(C(F)(F)F)[nH]c1=O (stereo not drawn) [Compound 489, N-(2-(oxetan-3-yl)-9H-xanthen-9-yl)-2-oxo-6-(trifluoromethyl)-1,2-dihydropyridine-3-carboxamide]	6.64
Cc1ccc(C(C(=O)Nc2ccc(C(F)(F)F)[nH]c2=O)c2ccc(C)cc2)cc1 [Compound 492, N-(2-oxo-6-(trifluoromethyl)-1,2-dihydropyridin-3-yl)-2,2-di-p-tolylacetamide]	< 5.00
COc1cc(-c2cc(C(=O)NC3c4ccc(C)cc4Oc4cc(C)ccc43)c(=O)[nH]c2C(F)(F)F)ccn1 [Compound 498, N-(3,6-dimethyl-9H-xanthen-9-yl)-2′-methoxy-6-oxo-2-(trifluoromethyl)-1,6-dihydro-[3,4′-bipyridine]-5-carboxamide]	7.70
Cc1ccc2c(c1)Oc1cccc(C)c1C2NC(=O)c1cc(Cc2ccccc2)c(C(F)(F)F)[nH]c1=O (stereo not drawn) [Compound 502, 5-benzyl-N-(1,6-dimethyl-9H-xanthen-9-yl)-2-oxo-6-(trifluoromethyl)-1,2-dihydropyridine-3-carboxamide]	6.59
Cc1ccc2c(c1)Oc1cccc(C)c1C2NC(=O)c1cc(-c2ccncc2)c(C(F)(F)F)[nH]c1=O (stereo not drawn) [Compound 503, N-(1,6-dimethyl-9H-xanthen-9-yl)-6-oxo-2-(trifluoromethyl)-1,6-dihydro-[3,4′-bipyridine]-5-carboxamide]	6.64
Cc1ccc2c(c1)Sc1cc(C)ccc1C2NC(=O)c1cc(-c2ncccn2)c(C(F)(F)F)[nH]c1=O [Compound 507, N-(3,6-dimethyl-9H-thioxanthen-9-yl)-2-oxo-5-(pyrimidin-2-yl)-6-(trifluoromethyl)-1,2-dihydropyridine-3-carboxamide]	7.40
CCN1CCN(c2cc(C(=O)NC3c4ccc(C)cc4Oc4cc(C)ccc43)c(=O)[nH]c2C(F)(F)F)CC1 [Compound 512, N-(3,6-dimethyl-9H-xanthen-9-yl)-5-(4-ethylpiperazin-1-yl)-2-oxo-6-(trifluoromethyl)-1,2-dihydropyridine-3-carboxamide]	7.05
CC(C)(C)OC(=O)Nc1ccc(CSc2ncc(C(=O)NC3c4ccc(Cl)cc4Oc4cc(Cl)ccc43)c(=O)[nH]2)cc1 [Compound 513, tert-butyl (4-(((5-((3,6-dichloro-9H-xanthen-9-yl)carbamoyl)-6-oxo-1,6-dihydropyrimidin-2-yl)thio)methyl)phenyl)carbamate]	6.04
Cc1ccc2c(c1)Oc1cc(C)ccc1C2NC(=O)c1cc(Oc2ccccc2)c(C(F)(F)F)[nH]c1=O [Compound 514, N-(3,6-dimethyl-9H-xanthen-9-yl)-2-oxo-5-phenoxy-6-(trifluoromethyl)-1,2-dihydropyridine-3-carboxamide]	7.70

Next, values leading:

pIC50	SMILES
7.52	Cc1ccc2c(c1)S(=O)(=O)c1cc(C)ccc1C2NC(=O)c1cc(Br)c(C(F)(F)F)[nH]c1=O [Compound 473, 5-bromo-N-(3,6-dimethyl-10,10-dioxido-9H-thioxanthen-9-yl)-2-oxo-6-(trifluoromethyl)-1,2-dihydropyridine-3-carboxamide]
7.52	Cc1ccc2c(c1)S(=O)(=O)c1cc(C)ccc1C2NC(=O)c1cc(C)c(C(F)(F)F)[nH]c1=O [Compound 474, N-(3,6-dimethyl-10,10-dioxido-9H-thioxanthen-9-yl)-5-methyl-2-oxo-6-(trifluoromethyl)-1,2-dihydropyridine-3-carboxamide]
8.00	Cc1ccc2c(c1)S(=O)(=O)c1cc(C)ccc1C2NC(=O)c1ccc(C(F)(F)F)[nH]c1=O [Compound 475, N-(3,6-dimethyl-10,10-dioxido-9H-thioxanthen-9-yl)-2-oxo-6-(trifluoromethyl)-1,2-dihydropyridine-3-carboxamide]
< 5.00	Cc1ccc2c(c1)S(=O)(=O)c1cccc(C)c1C2NC(=O)c1ccc(C(F)(F)F)[nH]c1=O (stereo not drawn) [Compound 476, N-(1,6-dimethyl-10,10-dioxido-9H-thioxanthen-9-yl)-2-oxo-6-(trifluoromethyl)-1,2-dihydropyridine-3-carboxamide]
5.30	CN1CC(c2ccc3c(c2)Oc2ccccc2C3NC(=O)c2ccc(C(F)(F)F)[nH]c2=O)C1 (stereo not drawn) [Compound 484, N-(3-(1-methylazetidin-3-yl)-9H-xanthen-9-yl)-2-oxo-6-(trifluoromethyl)-1,2-dihydropyridine-3-carboxamide]
< 5.00	Cc1ccc2c(c1)Oc1cc(C)ccc1C2NC(=O)c1ccc(C(C)C)[nH]c1=O [Compound 485, N-(3,6-dimethyl-9H-xanthen-9-yl)-6-isopropyl-2-oxo-1,2-dihydropyridine-3-carboxamide]
< 5.00	Cc1ccc2c(c1)Oc1cc(C)ccc1C2NC(=O)c1ccc(C(C)(C)C)[nH]c1=O [Compound 486, 6-(tert-butyl)-N-(3,6-dimethyl-9H-xanthen-9-yl)-2-oxo-1,2-dihydropyridine-3-carboxamide]
7.05	Cc1ccc2c(c1)S(=O)(=O)c1cc(C)ccc1C2NC(=O)c1cc(-c2ccncc2)c(C(F)(F)F)[nH]c1=O [Compound 493, N-(3,6-dimethyl-10,10-dioxido-9H-thioxanthen-9-yl)-6-oxo-2-(trifluoromethyl)-1,6-dihydro-[3,4′-bipyridine]-5-carboxamide]
7.70	Cc1ccc2c(c1)Oc1cc(C)ccc1C2NC(=O)c1cc(-c2cc[nH]c(=O)c2)c(C(F)(F)F)[nH]c1=O [Compound 494, N-(3,6-dimethyl-9H-xanthen-9-yl)-2′,6-dioxo-2-(trifluoromethyl)-1,1′,2′,6-tetrahydro-[3,4′-bipyridine]-5-carboxamide]
7.70	Cc1ccc2c(c1)Oc1cc(C)ccc1C2NC(=O)c1cc(-c2cccnc2)c(C(F)(F)F)[nH]c1=O [Compound 496, N-(3,6-dimethyl-9H-xanthen-9-yl)-6-oxo-2-(trifluoromethyl)-1,6-dihydro-[3,3′-bipyridine]-5-carboxamide]
7.52	Cc1ccc2c(c1)Oc1cc(C)ccc1C2NC(=O)c1cc(-c2ccc(=O)[nH]c2)c(C(F)(F)F)[nH]c1=O [Compound 497, N-(3,6-dimethyl-9H-xanthen-9-yl)-6,6′-dioxo-2-(trifluoromethyl)-1,1′,6,6′-tetrahydro-[3,3′-bipyridine]-5-carboxamide]
7.10	Cc1ccc2c(c1)Oc1cc(C)ccc1C2NC(=O)c1cc(C2=CCCCC2)c(C(F)(F)F)[nH]c1=O [Compound 505, 5-(cyclohex-1-en-1-yl)-N-(3,6-dimethyl-9H-xanthen-9-yl)-2-oxo-6-(trifluoromethyl)-1,2-dihydropyridine-3-carboxamide]
7.05	Cc1ccc2c(c1)S(=O)(=O)c1cc(C)ccc1C2NC(=O)c1cc(-c2ncccn2)c(C(F)(F)F)[nH]c1=O [Compound 506, N-(3,6-dimethyl-10,10-dioxido-9H-thioxanthen-9-yl)-2-oxo-5-(pyrimidin-2-yl)-6-(trifluoromethyl)-1,2-dihydropyridine-3-carboxamide]
7.52	Cc1ccc2c(c1)Sc1cc(C)ccc1C2NC(=O)c1cc(C)c(C(F)(F)F)[nH]c1=O [Compound 515, N-(3,6-dimethyl-9H-thioxanthen-9-yl)-5-methyl-2-oxo-6-(trifluoromethyl)-1,2-dihydropyridine-3-carboxamide]
6.70	Cc1ccc2c(c1)Oc1cc(C)ccc1C2NC(=O)c1cc(C2=CCNCC2)c(C(F)(F)F)[nH]c1=O [Compound 516, N-(3,6-dimethyl-9H-xanthen-9-yl)-6-oxo-2-(trifluoromethyl)-1,1′,2′,3′,6,6′-hexahydro-[3,4′-bipyridine]-5-carboxamide]
